How the values were obtained:
[1] = system: glioma cell line U87ΔEGFR; assay: Delivery of complex into a cancer cell, boron concentration in the cell by ICP-AES; format: cell-based, human; conditions: BSH 2 mM alone or with A6K (hydrochloride salt) 200 μM, 37° C. for 24 hours
Protocol: Mixing times were 10 minutes, 30 minutes, and 180 minutes. The obtained complex was diluted (pH 7.1 to 7.3) with PBS and added to a glioma cell line U87ΔEGFR in a petri dish. […] Each cell sample obtained by incubating, with the complex, at 37° C. for 3 hours, 12 hours, and 24 hours was subjected to ICP-AES thereby to measure a boron concentration in the cell. […] The incubation time of 12 hours was sufficient. […] The time for mixing with stirring of 10 minutes was sufficient. Increases in the BSH amounts in the cell were detected as an incubation time was extended.
A6R (TFA salt) and BSH were mixed with stirring by the same method as the method described in the above (1) to prepare a complex. The obtained complex was diluted (pH 7.1 to 7.3) with PBS and added to a glioma cell line U87ΔEGFR in a petri dish. Each cell sample obtained by incubating, with the complex, at 37° C. for 6 hours, 12 hours, and 24 hours was subjected to ICP-AES thereby to measure a boron concentration in the cell.
The complex containing A6K (hydrochloride salt) and BSH obtained in the above (1) (a molar ratio of A6K (hydrochloride salt):BSH was 1:10) was added to a glioma cell line U87ΔEGFR in a similar procedure to that described in Example 2 (2). The complex was added in an amount in such a way that final concentrations of A6K (hydrochloride salt) and BSH were as shown in FIG. 11. […]

U87ΔEGFR brain tumor = assay: Tumor-specific introduction of BSH in brain tumor model animal, anti-BSH immunohistostaining; format: in vivo, mouse; conditions: 200 μL tail vein, BSH 20 mM (with A6K 2 mM in complex); 12 hours after administration
Protocol: Animals used in the present experiment were bred, housed and used in accordance with the procedure approved (approval code: OKU-2016475) by the Animal Care and Use Committee, Okayama University. Tumor-bearing model mice (BALB/C nu/nu, female, 6 to 8 weeks of age, 25 g, Japan SLC, Inc., Shizuoka) were created by directly injecting 3 μL of a U87ΔEGFR cell suspension (1×10^5 cells/μL) into the brain. Two weeks later, 200 μL of the complex containing A6K and BSH (A6K 2 mM/BSH 20 mM) and 200 μL of BSH 20 mM as control experiments were respectively administered from the tail vein (given that a mouse body weight was 20 g, A6K-HCl was converted to 8 mg/kg and BSH was converted to 33.4 mg/kg.)
The complex used in the experiment (the compound described in Example 4 (1)) was prepared as follows. 70 μL of MQ water was added to 70 μL of A6K 10 mM to adjust to A6K 5 mM. […]
Twelve hours after administration, the mouse brain was embedded using an embedding medium for a frozen tissue section, tissue tek O.C.T compound. […] After washing, the section was immersed for 2 hours at room temperature in a solution of a donkey anti-mouse antibody (Life Technologies) labelled with Alexa-Fluor 488 (green fluorescence) (20 μg/mL) and a solution of a goat anti-rabbit antibody (Life Technologies) labelled with Alexa-Fluor 555 (red fluorescence) (2 μg/mL). […]

## mercaptoundecahydrododecaborate [BSH]
[1]
  intracellular boron concentration: 595.2±105.1 ng/10^6 cells
U87ΔEGFR brain tumor
  location of BSH relative to tumor tissue (HLA-A positive): not different between tumor tissues and normal brain tissues
  presence of BSH in brain tissue (green fluorescence): weak
